Laboratory results taken from patent US4970214A, “Quinoline substituted oxomethyl or thioxomethyl glycine derivatives and aldose reductase inhibition therewith” (Nippon Shinyaku Co., Ltd., priority 1986, dated 1990).
pIC50: −log10 of the molar value.

Experiments:
[1] = test system: amounts of inositol and galactitol in the sciatic nerve; assay: Inositol and galactitol in sciatic nerve of rats fed 20% galactose diet for 4 days; type: in vivo, rat (Sprague-Dawley); conditions: 9 a.m. and 5 p.m., rat sciatic nerve
Experimental: (C) Non-fasted male rats of Sprague-Dawley strain (5 rats in one group) of 150-220 g body weight were used. To all groups was administered 20% galactose diet (a mixture of galactose and F-2 which is a product of Funahashi Farm) and fed for 4 days. The test compound was given orally at 9 a.m. and 5 p.m. from the first to the fourth day. On the fifth day, the rats were sacrificed, sciatic nerve was taken out, and the amounts of inositol and galactitol in the sciatic nerve were measured by the method as given before.

Male mice of ddY strain = assay: Acute toxicity, oral, rate of death and general symptoms; type: in vivo; conditions: for rate of death: two weeks
Text: Male mice of ddY strain (5 weeks of age) were used (one group comprised 4 to 5 mice).

[2] = test system: Accumulation of Galactitol in sciatic nerve; assay: Accumulation of galactitol in sciatic nerve after single oral galactose; type: in vivo, rat (Sprague-Dawley); conditions: 4 hours prior to 5 g/kg galactose, rats sacrificed after 3 hours
Experimental: (B) Male rats of Sprague-Dawley strain (body weight: 150 to 200 g) were fasted overnight and used in the test (one group comprised 4 rats). To all groups were given 5 g/kg of galactose orally, then the rats were sacrificed after 3 hours, and sciatic nerve was taken out and weighed. The content of galactitol in the sciatic nerve was measured by high performance liquid chromatography in accordance with a method by Jean-Marie Dethy (Anal. Biochem. 143, 119, 1984). The test compound was given orally 4 hours prior to the administration of galactose. To the control group was given 0.5% methylcellulose.

aldose reductase [3] = biological target: T1, aldose reductase (Bos taurus, UniProt P16116); assay: Activity of aldose reductase, in vitro; type: biochemical; conditions: aldose reductase from crystal eye of cow
T1 construct: The aldose reductase used was that obtained from crystal eye of cow; from tissue; host or cells: cow eye lens
Text: The aldose reductase used was that obtained from crystal eye of cow and the measurement was done in vitro.

aldose reductase [4] = assay: Aldose reductase inhibiting action (statement in words, test not described)

Row | Structure (SMILES) | Inhibition Rate (%) ([1]; 5 mg/kg oral) | Inhibition Rate (%) ([1]; 10 mg/kg oral) | Inhibition Rate (%) ([1]; 20 mg/kg oral) | rate of death (Male mice of ddY strain; 500 mg/kg oral) | rate of death (Male mice of ddY strain; 1000 mg/kg oral) | Inhibition rate (%) against Accumulation of Galactitol in sciatic nerve ([2]; 10 mg/kg oral) [%] | Inhibition rate (%) against Accumulation of Galactitol in sciatic nerve ([2]; 20 mg/kg oral) [%] | Inhibition rate (%) against Accumulation of Galactitol in sciatic nerve ([2]; 50 mg/kg oral) [%] | Inhibition rate (%) against Accumulation of Galactitol in sciatic nerve ([2]; 100 mg/kg oral) [%] | pIC50 (aldose reductase [3]) | case of death (Male mice of ddY strain; 3 g/kg oral) | aldose reductase inhibiting action (aldose reductase [4])
1 | COc1ccc2c(C(=S)N(C)CC(=O)O)cccc2c1C(F)(F)F [Tolrestat, reference compound] | 34 | 86 | 96 | 2/4 | 3/4 | 21.01 | 28.26 | 68.00 | 95.43 |  |  | 
2 | CN(CC(=O)OCCO)C(=S)c1cc(-c2ccccc2F)nc2cc(F)ccc12 [Compound 3] |  | 26 | 37 |  | 0/4 |  | 32.68 | 70.78 |  | < 5.06 |  | 
3 | CCc1cc(C(=S)N(C)CC(=O)OCCO)c2cccc(C(F)(F)F)c2n1 [Compound 5, β-Hydroxyethyl ester of N-[(2-ethyl-8-trifluoromethylquinolin-4-yl)thioxomethyl]-N-methylglycine] |  |  |  |  | 0/4 |  | 13.98 | 79.66 |  |  |  | 
4 | Cc1cc(C(=S)N(C)CC(=O)OCCO)c2cccc(C(F)(F)F)c2n1 [Compound 2, β-Hydroxyethyl ester of N-[(2-methyl-8-trifluoromethylquinolin-4-yl)thioxomethyl]-N-methylglycine] | 27 | 46 | 77 |  |  | 45.37 | 91.28 | 98.19 |  | < 5.06 |  | 
5 | CN(CC(=O)OCCO)C(=S)c1cc(-c2ccccc2)nc2ccccc12 [Compound 1, β-Hydroxyethyl ester of N-[(2-phenylquinolin-4-yl)thioxomethyl]-N-methylglycine] |  | 45 | 67 |  | 0/4 |  | 54.88 | 84.57 | 92.57 | < 5.06 | no case of death | 
6 | O=C(O)CNC(=O)c1cc(-c2ccccc2)nc2ccccc12 [[(2-phenylquinolin-4-yl)carbonyl]glycine] |  |  |  |  |  |  |  |  |  |  |  | does not exhibit the aldose reductase inhibiting action
